Assay results published in ChEMBL document CHEMBL5543151, “Rational Design of a Novel Class of Human ClpP Agonists through a Ring-Opening Strategy with Enhanced Antileukemia Activity” (J Med Chem, 2024).

Key:
[1] = biological target: ATP-dependent Clp protease proteolytic subunit, mitochondrial (Homo sapiens, UniProt Q16740); experiment: Agonist activity at human Casein lysing protease P (HsClpP) assessed as increase in peptidase activity using fluorescent peptide AC-WLA-AMC as substrate measured after 2 hrs by […]
MV4-11 [2] = experiment: Anti-leukemia activity against human MV4-11 cells assessed as decrease in cell proliferation incubated for 72 hrs by CCK-8 assay; assay type: functional, cell-based; details: MV4-11, 72 h
MV4-11 [3] = experiment: Potency index, ratio of ONC201 IC50 to test compound IC50 for anti-leukemia activity against human MV4-11 cells assessed as decrease in cell proliferation incubated for 72 hrs by CCK-8 assay; assay type: functional
[4] = Half life in Sprague-Dawley rat at 5 mg/kg, iv measured upto 12 hrs by LC-MS analysis; assay type: ADME, organism-based; details: in vivo
[5] = AUC(0 to 12hrs) in Sprague-Dawley rat at 5 mg/kg, iv measured upto 12 hrs by LC-MS analysis; assay type: ADME, organism-based; details: in vivo
[6] = MRT (0 to 12hrs) in Sprague-Dawley rat at 15 mg/kg, po measured upto 12 hrs by LC-MS analysis; assay type: ADME, organism-based; details: in vivo
[7] = Cmax in Sprague-Dawley rat at 15 mg/kg, po measured upto 12 hrs by LC-MS analysis; assay type: ADME, organism-based; details: in vivo
[8] = Tmax in Sprague-Dawley rat at 15 mg/kg, po measured upto 12 hrs by LC-MS analysis; assay type: ADME, organism-based; details: in vivo
[9] = Half life in Sprague-Dawley rat at 15 mg/kg, po measured upto 12 hrs by LC-MS analysis; assay type: ADME, organism-based; details: in vivo
[10] = Bioavailability in Sprague-Dawley rat at 5 mg/kg, iv measured upto 12 hrs by LC-MS analysis; assay type: ADME, organism-based; details: in vivo
[11] = AUC(0 to 12hrs) in Sprague-Dawley rat at 15 mg/kg, po measured upto 12 hrs by LC-MS analysis; assay type: ADME, organism-based; details: in vivo
[12] = Cmax in Sprague-Dawley rat at 5 mg/kg, iv measured upto 12 hrs by LC-MS analysis; assay type: ADME, organism-based; details: in vivo
[13] = Clearance in Sprague-Dawley rat at 5 mg/kg, iv measured upto 12 hrs by LC-MS analysis; assay type: ADME, organism-based; details: in vivo
[14] = MRT (0 to 12hrs) in Sprague-Dawley rat at 5 mg/kg, iv measured upto 12 hrs by LC-MS analysis; assay type: ADME, organism-based; details: in vivo

ATP-dependent Clp protease proteolytic subunit, mitochondrial, sequence (Q16740 whole entry): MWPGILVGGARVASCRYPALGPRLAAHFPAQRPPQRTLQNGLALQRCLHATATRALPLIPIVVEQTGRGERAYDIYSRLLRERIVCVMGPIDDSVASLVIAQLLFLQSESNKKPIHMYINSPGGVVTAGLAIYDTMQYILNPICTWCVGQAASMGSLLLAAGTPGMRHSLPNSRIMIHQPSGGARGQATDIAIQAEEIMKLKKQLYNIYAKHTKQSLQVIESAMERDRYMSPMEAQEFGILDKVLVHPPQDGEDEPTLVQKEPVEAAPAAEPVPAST

SMILES | EC50 [1] [nM] | IC50 (MV4-11 [2]) [nM] | other results
O=c1nc(NCC2CC2)[nH]c2c1CN(Cc1ccccc1)CC2 | > 10000 | > 10000 | 
O=c1nc(NCc2ccccc2)[nH]c2c1CN(Cc1ccccc1Cl)CC2 | 1350 | 1030 | 
O=c1nc(NCc2ccccc2F)[nH]c2c1CN(Cc1ccccc1)CC2 | 1350 | 930 | 
Cc1cccc(CN2CCc3[nH]c(NCc4ccccc4)nc(=O)c3C2)c1 | 2250 | 2400 | 
N#Cc1cccc(CN2CCc3[nH]c(NCc4ccc(F)c(F)c4)nc(=O)c3C2)c1 | 870 | 30 | Ratio IC50 (MV4-11 [3]): 20
COc1cccc(CN2CCc3[nH]c(NCc4ccccc4)nc(=O)c3C2)c1 | > 10000 | 1680 | 
Cc1ccc(CN2CCc3[nH]c(NCc4ccccc4)nc(=O)c3C2)cc1 | > 10000 | > 10000 | 
O=c1nc(NCc2ccc3c(c2)OCO3)[nH]c2c1CN(Cc1ccccc1)CC2 | 520 | 2900 | 
O=c1nc(NCc2cccnc2)[nH]c2c1CN(Cc1ccccc1)CC2 | > 10000 | > 10000 | 
O=c1nc(NCc2ccccc2)[nH]c2c1CN(Cc1cccc(Cl)c1)CC2 | 1090 | 930 | 
Cc1ccccc1CNc1nc(=O)c2c([nH]1)CCN(Cc1cc(F)cc(F)c1)C2 | > 10000 | > 10000 | 
O=c1nc(NCC2CCCCC2)[nH]c2c1CN(Cc1ccccc1)CC2 | > 10000 | > 10000 | 
O=c1nc(NCc2ccccc2)[nH]c2c1CN(Cc1ccccc1)CC2 | 1340 | > 10000 | 
N#Cc1cccc(CN2CCc3[nH]c(NCc4ccccc4)nc(=O)c3C2)c1 | 610 | 450 | 
O=c1nc(NCc2ccc(C(F)(F)F)cc2)[nH]c2c1CN(Cc1ccc(Cl)c(Cl)c1)CC2 | > 10000 | > 10000 | 
O=c1nc(NCc2ccccc2)[nH]c2c1CN(Cc1cccc(F)c1)CC2 | 2020 | 830 | 
O=c1nc(NCc2ccccc2)[nH]c2c1CN(CCc1ccccc1)CC2 | > 10000 | > 10000 | 
O=c1nc(NCc2ccc(C(F)(F)F)cc2)[nH]c2c1CN(Cc1ccccc1)CC2 | 2100 | 1200 | 
O=c1nc(NCc2ccccc2)[nH]c2c1CN(Cc1cc(F)cc(F)c1)CC2 | 950 | 900 | 
O=c1nc(NCc2ccccc2)[nH]c2c1CN(Cc1ccc(Cl)cc1)CC2 | 1210 | 970 | 

SMILES | EC50 [1] [nM] | IC50 (MV4-11 [2]) [nM] | other results
N#Cc1cccc(CN2CCc3[nH]c(NCc4ccc(C(F)(F)F)cc4)nc(=O)c3C2)c1 | > 10000 | > 10000 | 
N#Cc1ccccc1CN1CCc2[nH]c(NCc3ccccc3)nc(=O)c2C1 | > 10000 | > 10000 | 
Cc1ccccc1CN1C(=O)C2=C(CCN(Cc3ccccc3)C2)N2CCN=C12.Cl |  |  | half-life [4]: 1.1 h; AUC(0-t) at 12 h [5]: 1270 ng·h/mL; MRT last at 12 h [6]: 1.3 h; Cmax [7]: 448 ng/mL; Tmax [8]: 0.5 h; half-life [9]: 1.4 h; bioavailability [10]: 14.8%; AUC(0-t) at 12 h [11]: 565 ng·h/mL; Cmax [12]: 970 ng/mL; clearance [13]: 96.7 mL/min/kg; MRT last at 12 h [14]: 0.7 h
O=c1nc(NCc2ccccc2Cl)[nH]c2c1CN(Cc1ccccc1)CC2 | > 10000 | > 10000 | 
O=c1nc(NCc2ccccc2)[nH]c2c1CN(CC1CC1)CC2 | > 10000 | > 10000 | 
O=c1nc(NCc2ccc(F)cc2)[nH]c2c1CN(Cc1ccccc1)CC2 | 1000 | 360 | 
O=c1nc(NCc2cccc(Cl)c2)[nH]c2c1CN(Cc1ccccc1)CC2 | > 10000 | 1880 | 
N#Cc1cccc(CN2CCc3[nH]c(NCc4ccc(Cl)c(Cl)c4)nc(=O)c3C2)c1 | 820 | 60 | 
COc1ccc(CNc2nc(=O)c3c([nH]2)CCN(Cc2ccccc2)C3)cc1 | 2020 | 830 | 
O=c1nc(NCc2cccc(F)c2)[nH]c2c1CN(Cc1ccccc1)CC2 | > 10000 | > 10000 | 
O=c1nc(NCc2ccc3c(c2)OCO3)[nH]c2c1CN(Cc1cc(F)cc(F)c1)CC2 | > 10000 | > 10000 | 
O=c1nc(NCc2ccc(F)c(F)c2)[nH]c2c1CN(Cc1ccccc1)CC2 | 1410 | 480 | 
Cc1ccccc1CN1CCc2[nH]c(NCc3ccccc3)nc(=O)c2C1 | > 10000 | > 10000 | 
O=c1nc(NCc2ccc(F)c(F)c2)[nH]c2c1CN(Cc1cc(F)cc(F)c1)CC2 | 510 | 30 | Ratio IC50 (MV4-11 [3]): 20
O=c1nc(NCc2ccc3c(c2)OCO3)[nH]c2c1CN(Cc1ccc(Cl)c(Cl)c1)CC2 | > 10000 | > 10000 | 
Cc1cccc(CNc2nc(=O)c3c([nH]2)CCN(Cc2ccccc2)C3)c1 | > 10000 | 1630 | 
COc1ccccc1CNc1nc(=O)c2c([nH]1)CCN(Cc1ccccc1)C2 | > 10000 | > 10000 | 
O=c1nc(NCc2ccc(Cl)c(Cl)c2)[nH]c2c1CN(Cc1ccccc1)CC2 | 610 | 450 | 
O=c1nc(NCc2ccc(Br)cc2)[nH]c2c1CN(Cc1ccccc1)CC2 | 1950 | 930 | 
O=c1nc(NCc2ccc(Cl)cc2)[nH]c2c1CN(Cc1ccccc1)CC2 | 1950 | 1690 | 

SMILES | EC50 [1] [nM] | IC50 (MV4-11 [2]) [nM] | other results
N#Cc1cccc(CN2CCc3[nH]c(NCc4cccc(F)c4)nc(=O)c3C2)c1 | > 10000 | > 10000 | 
O=c1nc(NCc2ccccc2Br)[nH]c2c1CN(Cc1ccccc1)CC2 | > 10000 | > 10000 | 
CCNc1nc(=O)c2c([nH]1)CCN(Cc1ccccc1)C2 | > 10000 | > 10000 | 
O=c1[nH]c(NCCc2ccccc2)nc2c1CN(Cc1ccccc1)CC2 | > 10000 | > 10000 | 
O=c1nc(NCc2ccc3ccccc3c2)[nH]c2c1CN(Cc1ccccc1)CC2 | 2250 | 2400 | 
O=c1nc(NCc2ccc(C(F)(F)F)cc2)[nH]c2c1CN(Cc1cc(F)cc(F)c1)CC2 | > 10000 | > 10000 | 
Cc1ccccc1CNc1nc(=O)c2c([nH]1)CCN(Cc1ccccc1)C2 | 1220 | 1510 | 
Cc1ccccc1CN1CCn2c1nc(=O)c1c2CCN(Cc2ccccc2)C1 | 1920 | 350 | 
CS(=O)(=O)c1ccc(CN2CCc3[nH]c(NCc4ccccc4)nc(=O)c3C2)cc1 | > 10000 | > 10000 | 
O=c1nc(NCc2ccccc2)[nH]c2c1CN(Cc1ccc(F)c(F)c1)CC2 | 2100 | 1200 | 
Cc1ccccc1CNc1nc(=O)c2c([nH]1)CCN(Cc1cccc(C#N)c1)C2 | > 10000 | > 10000 | 
O=c1nc(NCc2ccccc2)[nH]c2c1CN(Cc1ccc(F)cc1)CC2 | > 10000 | > 10000 | 
Cc1ccc(CNc2nc(=O)c3c([nH]2)CCN(Cc2ccccc2)C3)cc1 | 1110 | 1610 | 
O=c1nc(NCc2ccccc2)[nH]c2c1CN(Cc1ccccc1F)CC2 | > 10000 | > 10000 | 
COc1cccc(CNc2nc(=O)c3c([nH]2)CCN(Cc2ccccc2)C3)c1 | > 10000 | > 10000 | 
O=c1nc(NCc2cccc(Br)c2)[nH]c2c1CN(Cc1ccccc1)CC2 | > 10000 | > 10000 | 
O=c1nc(NCc2cnccn2)[nH]c2c1CN(Cc1ccccc1)CC2 | > 10000 | > 10000 | 
O=c1nc(NCc2ccccc2)[nH]c2c1CN(Cc1ccc(Cl)c(Cl)c1)CC2 | 1000 | 360 | 
CCN1CCc2[nH]c(NCc3ccccc3)nc(=O)c2C1 | > 10000 | > 10000 | 
